In patent US20020137929A1, “1 - (3-heterocyclylphenyl) isothiourea, -isourea, -guanidine and -amidine herbicidal agents” (Intellectual Property Department, BASF Aktiengesellschaft, priority 1998, published 2002):

Assays:
[1] = system: AMBEL (Ragweed, Common); assay: Postemergence herbicidal evaluation; type: in vivo, Ambrosia artemisifolia; conditions: postemergence
How it was run: (§1)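 Rate range approx. 0.0156–0.500 kg/ha. Foliar application at 40 psi to ~2-week seedlings; surfactant 0.5% TWEEN 20 in 50/50 acetone/water. Evaluation 4–5 wk post-treatment by 0–9 visual injury score, means of replicate tests.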

[2] = system: IPOHE (Morningglory, Ivyleaf); assay: Postemergence herbicidal evaluation; type: in vivo, Ipomoea hederacea; conditions: postemergence
How it was run: as §1

[3] = system: GLXMAW (Soybean, Williams); assay: Postemergence herbicidal evaluation; type: in vivo, Glycine max, (L.) Merr. cv Williams; conditions: postemergence
How it was run: as §1

[4] = system: ZEAMX (Corn, Field); assay: Postemergence herbicidal evaluation; type: in vivo, Zea mays; conditions: postemergence
How it was run: as §1

[5] = system: ABUTH (Velvetleaf); assay: Preemergence herbicidal evaluation; type: in vivo, Abutilon theophrasti; conditions: preemergence, rated 4-5 weeks after treatment, 0-9 scale
How it was run: (§2)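 Herbicidal effect scored visually, 0-9, at 4 to 5 weeks against a control; compound applied preemergence by aqueous acetone spray to seeded soil at about 0.0156 to 0.500 kg/ha.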

[6] = system: AMBEL (Ragweed, Common); assay: Preemergence herbicidal evaluation; type: in vivo, Ambrosia artemisifolia; conditions: preemergence, rated 4-5 weeks after treatment, 0-9 scale
How it was run: as §2

[7] = system: CASOB (Sicklepod); assay: Preemergence herbicidal evaluation; type: in vivo, Cassia obtusifolia; conditions: preemergence, rated 4-5 weeks after treatment, 0-9 scale
How it was run: as §2

[8] = system: GALAP (Galium); assay: Preemergence herbicidal evaluation; type: in vivo, Galium aparine; conditions: preemergence, rated 4-5 weeks after treatment, 0-9 scale
How it was run: as §2

[9] = system: ECHCG (Barnyardgrass); assay: Preemergence herbicidal evaluation; type: in vivo, Echinochloa crus-galli; conditions: preemergence, rated 4-5 weeks after treatment, 0-9 scale
How it was run: as §2

[10] = system: SETVI (Foxtail, Green); assay: Preemergence herbicidal evaluation; type: in vivo, Setaria viridis; conditions: preemergence, rated 4-5 weeks after treatment, 0-9 scale
How it was run: as §2

[11] = system: GLXMAW (Soybean, Williams); assay: Preemergence herbicidal evaluation; type: in vivo, Glycine max, (L.) Merr. cv Williams; conditions: preemergence, rated 4-5 weeks after treatment, 0-9 scale
How it was run: as §2

[12] = system: CYPSE (Flatsedge); assay: Preemergence weed control under flooded paddy conditions; type: in vivo, Cyperus serotinus; conditions: rated 3-4 weeks after treatment
How it was run: (§3)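 Seeds or propagules sown in silt loam kept flooded 1.5-3 cm; compounds in 50/50 acetone/water pipetted into flood water at about 0.0313 to 0.500 kg/ha. Greenhouse; visual 0-9 rating versus untreated control 3-4 weeks after treatment.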

[13] = system: SAGPY (Arrowhead (Pygmaea)); assay: as above; type: in vivo, Sagittaria pygmaea; conditions: rated 3-4 weeks after treatment
How it was run: as §3

[14] = system: ECHORC (Watergrass (Calif.)); assay: Postemergence weed control under flooded paddy conditions; type: in vivo, Echinochloa oryzoides; conditions: postemergence weeds, rated 3 to 4 weeks after treatment
How it was run: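 Injury ratings (0–9 scale covering stand, vigor, malformation, size, chlorosis and overall appearance versus control) were made three to four weeks after treatment. Test material, about 0.0313 to 0.500 kg/ha a.i. in 50/50 v/v aqueous/acetone, was added to flood water 1.5 to 3 cm deep over 3 to 5 cm weeds and 1.5 to 2.5 leaf rice.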

C=CCN1C(=O)C(CC(=O)OCCF)SC1=Nc1cc(-n2c(=O)cc(C(F)(F)F)n(C)c2=O)c(F)cc1Cl (stereo not shown) [Compound 86, 2-Fluoroethyl 3-allyl-2-{{2-chloro-5-[3,6-dihydro-3-methyl-2,6-dioxo-4-(trifluoromethyl)-1(2H)-pyrimidinyl]-4-fluorophenyl}imino}-4-oxo-5-thiazolidineacetate]
8.0: ZEAMX herbicidal rating ([4]; rate 0.0313 kg/ha) | SETVI rating ([10]; 0.1250 kg/ha) | GLXMAW rating ([11]; 0.5000 kg/ha)
0.0: AMBEL rating ([6]; 0.0156 kg/ha) | AMBEL rating ([6]; 0.0313 kg/ha) | CASOB rating ([7]; 0.0156 kg/ha) | CASOB rating ([7]; 0.0313 kg/ha) | CASOB rating ([7]; 0.0625 kg/ha) | CASOB rating ([7]; 0.1250 kg/ha) | CASOB rating ([7]; 0.2500 kg/ha) | GALAP rating ([8]; 0.0156 kg/ha) | GALAP rating ([8]; 0.0313 kg/ha) | GALAP rating ([8]; 0.0625 kg/ha) | GALAP rating ([8]; 0.1250 kg/ha) | ECHCG rating ([9]; 0.0156 kg/ha) | ECHCG rating ([9]; 0.0313 kg/ha) | ECHCG rating ([9]; 0.0625 kg/ha) | ECHCG rating ([9]; 0.1250 kg/ha) | ECHCG rating ([9]; 0.2500 kg/ha) | SETVI rating ([10]; 0.0156 kg/ha) | SETVI rating ([10]; 0.0313 kg/ha) | GLXMAW rating ([11]; 0.0156 kg/ha) | GLXMAW rating ([11]; 0.0313 kg/ha) | GLXMAW rating ([11]; 0.0625 kg/ha) | GLXMAW rating ([11]; 0.1250 kg/ha) | CYPSE herbicidal effect rating ([12]; 0.0313 kg/ha) | CYPSE herbicidal effect rating ([12]; 0.0625 kg/ha)
4.0: ECHCG rating ([9]; 0.5000 kg/ha) | SETVI rating ([10]; 0.0625 kg/ha) | GLXMAW rating ([11]; 0.2500 kg/ha)
8.5: GLXMAW herbicidal rating ([3]; rate 0.0156 kg/ha) | ZEAMX herbicidal rating ([4]; rate 0.0625 kg/ha)
5.0: SAGPY herbicidal effect rating ([13]; 0.0313 kg/ha) | Herbicidal rating ECHORC ([14]; Rate 0.0313 kg/ha)
3.0: CASOB rating ([7]; 0.5000 kg/ha) | CYPSE herbicidal effect rating ([12]; 0.1250 kg/ha)
9.0: AMBEL herbicidal rating ([1]; rate 0.0156 kg/ha) | AMBEL herbicidal rating ([1]; rate 0.0313 kg/ha) | AMBEL herbicidal rating ([1]; rate 0.0625 kg/ha) | AMBEL herbicidal rating ([1]; rate 0.1250 kg/ha) | IPOHE herbicidal rating ([2]; rate 0.0156 kg/ha) | IPOHE herbicidal rating ([2]; rate 0.0313 kg/ha) | IPOHE herbicidal rating ([2]; rate 0.0625 kg/ha) | IPOHE herbicidal rating ([2]; rate 0.1250 kg/ha) | GLXMAW herbicidal rating ([3]; rate 0.0313 kg/ha) | GLXMAW herbicidal rating ([3]; rate 0.0625 kg/ha) | GLXMAW herbicidal rating ([3]; rate 0.1250 kg/ha) | ZEAMX herbicidal rating ([4]; rate 0.1250 kg/ha) | ABUTH rating ([5]; 0.0156 kg/ha) | ABUTH rating ([5]; 0.0313 kg/ha) | ABUTH rating ([5]; 0.0625 kg/ha) | ABUTH rating ([5]; 0.1250 kg/ha) | ABUTH rating ([5]; 0.2500 kg/ha) | ABUTH rating ([5]; 0.5000 kg/ha) | AMBEL rating ([6]; 0.1250 kg/ha) | AMBEL rating ([6]; 0.2500 kg/ha) | AMBEL rating ([6]; 0.5000 kg/ha) | GALAP rating ([8]; 0.2500 kg/ha) | GALAP rating ([8]; 0.5000 kg/ha) | SETVI rating ([10]; 0.2500 kg/ha) | SETVI rating ([10]; 0.5000 kg/ha) | CYPSE herbicidal effect rating ([12]; 0.2500 kg/ha) | SAGPY herbicidal effect rating ([13]; 0.0625 kg/ha) | SAGPY herbicidal effect rating ([13]; 0.1250 kg/ha) | SAGPY herbicidal effect rating ([13]; 0.2500 kg/ha) | Herbicidal rating ECHORC ([14]; Rate 0.1250 kg/ha) | Herbicidal rating ECHORC ([14]; Rate 0.2500 kg/ha)
7.5: ZEAMX herbicidal rating ([4]; rate 0.0156 kg/ha)
6.0: AMBEL rating ([6]; 0.0625 kg/ha) | Herbicidal rating ECHORC ([14]; Rate 0.0625 kg/ha)
